Source: US11672964B2, “Bioactive components conjugated to substrates of microneedle arrays” (University of Pittsburgh—Of the Commonwealth System of …, priority 2015, dated 2023)

What was measured:
epidermal cells = settings: pyramidal CMC-microneedle array, 5 mg/g of CMC, arrays removed after 5 minutes, 72 hours of exposure
Protocol: Cytoxan® was integrated at a concentration of 5 mg/g of CMC, enabling delivery of approximately about 140 μg per array. This is a therapeutically relevant concentration based on the area of skin targeted, yet well below levels associated with systemic toxicities. Living human skin organ cultures were used to assess the cytotoxicty of Cytoxan®. Cytoxan® was delivered by application of arrays to skin explants as we previously described. Arrays and residual material were removed 5 minutes after application, and after 72 hours of exposure, culture living skin explants were cryo-sectioned and fixed. Apoptosis was evaluated using green fluorescent TUNEL assay (In Situ Cell Death Detection Kit, TMR […], Roche, cat #:11-684-795-910).

human skin = test: Apoptosis in human skin at the chosen MNA doxorubicin dose; settings: MNA dose chosen for the tumor study
B16 melanoma = test: Treatment of established B16 skin tumors with MNAs; settings: MNAs once weekly for three weeks; for survival: combination: long term survival through day 70
Protocol: B16 skin tumors were established in normal mice by injection. Visible established cutaneous tumors were treated once weekly for three weeks with MNAs containing either doxorubicin alone, Poly(I:C) alone, or doxorubicin and Poly(I:C) incorporated into the same MNA. […] Tumor growth and survival were measured regularly for the duration of the study.

Row | Compound | apoptosis (TUNEL) (epidermal cells) | apoptosis and necrosis in human skin (human skin) | tumor growth (B16 melanoma) | survival (B16 melanoma) [%]
1 | O=P1(N(CCCl)CCCl)NCCCO1 (stereo not drawn) [Cytoxan®, cyclophosphamide] | extensive apoptosis of epidermal cells | – | – | –
2 | COc1cccc2c1C(=O)c1c(O)c3c(c(O)c1C2=O)C[C@@](O)(C(=O)CO)C[C@@H]3O[C@H]1C[C@H](N)[C@H](O)[C@H](C)O1 [doxorubicin] | – | induces apoptosis in human skin without causing necrosis | slowed tumor growth | 30
3 | Poly(I:C) | – | – | slowed tumor growth | 50
